The results in this text go back to patent US20180318311A1, “TRICYCLIC 2-QUINOLINONES AS ANTIBACTERIALS” (priority 2017, published 2018).

Common to all, as to type: cell-based
Test [1] deals with E. faecalis ATCC 29212 (NB04001). The test can be described thus: MIC by broth microdilution, E. faecalis NB04001. Particulars: Enterococcus faecalis, ATCC29212, CAMHB, 35° C., 20 hours, read-out: Antibacterial activity (MIC) NB04001. The method, boiled down:
(§1)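 Per CLSI, strains grown overnight on Mueller-Hinton agar are tested in cation-adjusted Mueller-Hinton broth at about 5×10^5 CFU/mL against serially diluted compound, 1% DMSO final. Incubation runs 20 h at 35° C; MIC is judged visually with OD600 support.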

Test [2] concerns E. coli ATCC 25922 (NB27001). The test can be described thus: MIC by broth microdilution, E. coli NB27001. The conditions noted are these: Escherichia coli, ATCC25922, CAMHB, 35° C., 20 hours, read-out: Antibacterial activity (MIC) NB27001. The procedure, abridged:
as §1
(Broth dilution looks for growth in wells or tubes with falling amounts of substance.)

The test system of test [3] is S. pneumoniae ATCC 25922 (NB07001). The test can be described thus: MIC by broth microdilution, S. pneumoniae NB07001. Particulars: Streptococcus pneumoniae, ATCC25922, 20 h, read-out: Antibacterial activity (MIC) NB07001. The procedure, abridged: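 CAMHB, ~5×10^5 CFU/mL, 2-fold serial dilutions (final DMSO 1%), 35° C, ambient air, 20 h. Read OD600 plus visual check; MIC = lowest conc. with no visible growth, μg/mL.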

Test [4] has as its system S. aureus NB01006-AVR005, gyrA (S84L), grlA (580F) and grlB (E471K). Put plainly: microbe, parasite or virus in culture. The conditions noted are these: Staphylococcus aureus, 20 h, read-out: Antibacterial activity (MIC) NB01006-AVR005. The procedure, abridged: as §1
In test [5] the test system is P. aeruginosa NB52019, wild-type PAO1 strain. Put plainly: MIC by broth microdilution, P. aeruginosa NB52019. The conditions noted are these: Pseudomonas aeruginosa, CAMHB, 35° C., 20 hours, read-out: Antibacterial activity (MIC) NB52019. The method, boiled down:
as §1

Test [6] has as its system S. aureus ATCC 49951 (NB01006). Put plainly: MIC by broth microdilution, S. aureus NB01006. The conditions noted are these: Staphylococcus aureus, ATCC49951, CAMHB, 35° C., 20 hours, read-out: Antibacterial activity (MIC) NB01006. The procedure, abridged:
as §1

Test [7] relates to S. aureus NB01080 fluoroquinolone-resistant clinical isolate. The test can be described thus: MIC by broth microdilution, S. aureus NB01080. The conditions noted are these: Staphylococcus aureus, CAMHB, 35° C., 20 hours, read-out: Antibacterial activity (MIC) NB01080. The procedure, abridged: as §1

In brackets after ≈: the same amount, converted by molar mass. Some results are limits rather than exact numbers.

Regarding `C[C@H]1COc2c(N3CCC(=C(Cl)CN)CC3)c(F)cc3cc(C(=O)O)c(=O)n1c23` [Example 1.10, (S)-10-(4-(2-amino-1-chloroethylidene)piperidin-1-yl)-9-fluoro-3-methyl-5-oxo-2,3-dihydro-5H-[1,4]oxazino[2,3,4-ij]quinoline-6-carboxylic acid], the MIC in test [1] was 1 to 32 µg/mL (≈ 2.37 to 75.9 µM); in test [2], above 32 µg/mL; in test [3] it was below 1 µg/mL; in test [4], above 32 µg/mL; in test [5], above 32 µg/mL; in test [6], 1 to 32 µg/mL (≈ 2.37 to 75.9 µM). The MIC in test [7] was 1 to 32 µg/mL (≈ 2.37 to 75.9 µM).

On to `CNC1([C@@H]2CCN(c3c(F)cc4cc(C(=O)O)c(=O)n5c4c3OC[C@@H]5C)C2)CC1` [Example 1.12, (S)-9-fluoro-3-methyl-10-((R)-3-(1-(methylamino)cyclopropyl)pyrrolidin-1-yl)-5-oxo-2,3-dihydro-5H-[1,4]oxazino[2,3,4-ij]quinoline-6-carboxylic acid], for which the MIC is 1 to 32 µg/mL (≈ 2.49 to 79.7 µM) in test [1]; 1 to 32 µg/mL (≈ 2.49 to 79.7 µM) in test [2]; below 1 µg/mL in test [3]; 1 to 32 µg/mL (≈ 2.49 to 79.7 µM) in test [4]; above 32 µg/mL in test [5]; below 1 µg/mL in test [6]. Also, the MIC in test [7] fell in the range of 1 to 32 µg/mL (≈ 2.49 to 79.7 µM).

Regarding `C[C@H]1COc2c(N3CC4CCCC4(N)C3)c(F)cc3cc(C(=O)O)c(=O)n1c23` (stereo partly drawn) [Example 1.13, (3S)-10-(3a-aminohexahydrocyclopenta [c]pyrrol-2(1H)-yl)-9-fluoro-3-methyl-5-oxo-2,3-dihydro-5H-[1,4]oxazino[2,3,4-ij]quinoline-6-carboxylic acid], the MIC is 1 to 32 µg/mL (≈ 2.58 to 82.6 µM) in test [1]; 1 to 32 µg/mL (≈ 2.58 to 82.6 µM) in test [2]; 1 to 32 µg/mL (≈ 2.58 to 82.6 µM) in test [3]; above 32 µg/mL in test [4]; above 32 µg/mL in test [5]; 1 to 32 µg/mL (≈ 2.58 to 82.6 µM) in test [6]. The MIC in test [7] is above 32 µg/mL.

Consider `C[C@H]1COc2c(N3CCN4C(=O)CCC4C3)c(F)cc3cc(C(=O)O)c(=O)n1c23` (stereo partly drawn) [Example 1.14, (3S)-9-fluoro-3-methyl-5-oxo-10-(6-oxohexahydropyrrolo[1,2-a]pyrazin-2(1H)-yl)-2,3-dihydro-5H-[1,4]oxazino[2,3,4-ij]quinoline-6-carboxylic acid], for which the MIC in test [1] is 1 to 32 µg/mL (≈ 2.49 to 79.7 µM); in test [2] it was above 32 µg/mL; in test [3] it was 1 to 32 µg/mL (≈ 2.49 to 79.7 µM); in test [4], 1 to 32 µg/mL (≈ 2.49 to 79.7 µM); in test [5], above 32 µg/mL; in test [6] it was below 1 µg/mL. For the same compound, in test [7], the MIC was 1 to 32 µg/mL (≈ 2.49 to 79.7 µM).

On to `C[C@H]1COc2c(N3Cc4ccncc4C3)c(F)cc3cc(C(=O)O)c(=O)n1c23` [Example 1.15, (S)-10-(1,3-dihydro-2H-pyrrolo[3,4-c]pyridin-2-yl)-9-fluoro-3-methyl-5-oxo-2,3-dihydro-5H-[1,4]oxazino[2,3,4-ij]quinoline-6-carboxylic acid], for which the MIC in test [1] is 1 to 32 µg/mL (≈ 2.62 to 83.9 µM); in test [2], 1 to 32 µg/mL (≈ 2.62 to 83.9 µM); in test [3], below 1 µg/mL; in test [4], 1 to 32 µg/mL (≈ 2.62 to 83.9 µM); in test [5], above 32 µg/mL; in test [6] it was below 1 µg/mL. Moreover, the MIC in test [7] fell in the range of 1 to 32 µg/mL (≈ 2.62 to 83.9 µM).

As to `C[C@H]1COc2c(N3CCC(F)(CN)C3)c(F)cc3cc(C(=O)O)c(=O)n1c23` (stereo partly drawn) [Example 1.16, (3S)-10-(3-(aminomethyl)-3-fluoropyrrolidin-1-yl)-9-fluoro-3-methyl-5-oxo-2,3-dihydro-5H-[1,4]oxazino[2,3,4-ij]quinoline-6-carboxylic acid], the MIC in test [1] is 1 to 32 µg/mL (≈ 2.64 to 84.4 µM); in test [2] it was 1 to 32 µg/mL (≈ 2.64 to 84.4 µM); in test [3], below 1 µg/mL; in test [4], 1 to 32 µg/mL (≈ 2.64 to 84.4 µM); in test [5] it was above 32 µg/mL; in test [6], below 1 µg/mL. Besides, in test [7], the MIC is 1 to 32 µg/mL (≈ 2.64 to 84.4 µM).

Regarding `C[C@H]1COc2c(N3CCC4(CC3)CNC4)c(F)cc3cc(C(=O)O)c(=O)n1c23` [Example 1.17, (S)-9-fluoro-3-methyl-5-oxo-10-(2,7-diazaspiro[3,5]nonan-7-yl)-2,3-dihydro-5H-[1,4]oxazino[2,3,4-ij]quinoline-6-carboxylic acid], the MIC in test [1], in test [2], in test [3], in test [4], in test [5] and in test [6] was above 32 µg/mL each time. Moreover, the MIC in test [7] was above 32 µg/mL.

As to `C[C@H]1COc2c(N3CC4CC4(CN)C3)c(F)cc3cc(C(=O)O)c(=O)n1c23` (stereo partly drawn) [Example 1.18], the MIC in test [1] was 1 to 32 µg/mL (≈ 2.68 to 85.7 µM); in test [2], above 32 µg/mL; in test [3] it was 1 to 32 µg/mL (≈ 2.68 to 85.7 µM); in test [4] it was above 32 µg/mL; in test [5], above 32 µg/mL; in test [6], below 1 µg/mL. The MIC in test [7] was above 32 µg/mL.

In the case of `CC[C@H]1COc2c(N3CC[C@@H](C4(N)CC4)C3)c(F)cc3cc(C(=O)O)c(=O)n1c23` [Example 1.19, (S)-10-((R)-3-(1-aminocyclopropyl)pyrrolidin-1-yl)-3-ethyl-9-fluoro-5-oxo-2,3-dihydro-5H-[1,4]oxazino[2,3,4-ij]quinoline-6-carboxylic acid], the MIC in test [1] is 1 to 32 µg/mL (≈ 2.49 to 79.7 µM); in test [2], above 32 µg/mL; in test [3] it was below 1 µg/mL; in test [4] it was above 32 µg/mL; in test [5], above 32 µg/mL; in test [6], 1 to 32 µg/mL (≈ 2.49 to 79.7 µM). Also, the MIC in test [7] fell in the range of 1 to 32 µg/mL (≈ 2.49 to 79.7 µM).

`NC1([C@@H]2CCN(c3c(F)cc4cc(C(=O)O)c(=O)n5c4c3OCC5)C2)CC1` [Example 1.20, (R)-10-(3-(1-aminocyclopropyl)pyrrolidin-1-yl)-9-fluoro-5-oxo-2,3-dihydro-5H-[1,4]oxazino[2,3,4-ij]quinoline-6-carboxylic acid]: the MIC in test [1] is 1 to 32 µg/mL (≈ 2.68 to 85.7 µM); in test [2], above 32 µg/mL; in test [3], 1 to 32 µg/mL (≈ 2.68 to 85.7 µM); in test [4] it was above 32 µg/mL; in test [5] it was above 32 µg/mL; in test [6] it was 1 to 32 µg/mL (≈ 2.68 to 85.7 µM). The MIC in test [7] was 1 to 32 µg/mL (≈ 2.68 to 85.7 µM).

Take `C[C@@H]1COc2c(N3CC[C@@H](C4(N)CC4)C3)c(F)cc3cc(C(=O)O)c(=O)n1c23` [Example 1.21, (R)-10-((R)-3-(1-aminocyclopropyl)pyrrolidin-1-yl)-9-fluoro-3-methyl-5-oxo-2,3-dihydro-5H-[1,4]oxazino[2,3,4-ij]quinoline-6-carboxylic acid]: the MIC is above 32 µg/mL in test [1]; above 32 µg/mL in test [2]; 1 to 32 µg/mL (≈ 2.58 to 82.6 µM) in test [3]; above 32 µg/mL in test [4]; above 32 µg/mL in test [5]; 1 to 32 µg/mL (≈ 2.58 to 82.6 µM) in test [6]. The MIC in test [7] was above 32 µg/mL.

For the compound `C[C@@H]1Cn2c(=O)c(C(=O)O)cc3cc(F)c(N4CC[C@@H](C5(N)CC5)C4)c(c32)O1` [Example 1.22, (R)-10-((R)-3-(1-aminocyclopropyl)pyrrolidin-1-yl)-9-fluoro-2-methyl-5-oxo-2,3-dihydro-5H-[1,4]oxazino[2,3,4-ij]quinoline-6-carboxylic acid], the MIC in test [1] was 1 to 32 µg/mL (≈ 2.58 to 82.6 µM); in test [2], above 32 µg/mL; in test [3], 1 to 32 µg/mL (≈ 2.58 to 82.6 µM); in test [4], above 32 µg/mL; in test [5] it was above 32 µg/mL; in test [6] it was 1 to 32 µg/mL (≈ 2.58 to 82.6 µM). For the same compound, in test [7], the MIC was in the range of 1 to 32 µg/mL (≈ 2.58 to 82.6 µM).

Regarding `C[C@H]1Cn2c(=O)c(C(=O)O)cc3cc(F)c(N4CC[C@@H](C5(N)CC5)C4)c(c32)O1` [Example 1.23, (S)-10-((R)-3-(1-aminocyclopropyl)pyrrolidin-1-yl)-9-fluoro-2-methyl-5-oxo-2,3-dihydro-5H-[1,4]oxazino[2,3,4-ij]quinoline-6-carboxylic acid], the MIC in test [1] was above 32 µg/mL; in test [2], 1 to 32 µg/mL (≈ 2.58 to 82.6 µM); in test [3], 1 to 32 µg/mL (≈ 2.58 to 82.6 µM); in test [4], above 32 µg/mL; in test [5] it was above 32 µg/mL; in test [6], above 32 µg/mL. In addition, the MIC in test [7] is above 32 µg/mL.

`C[C@H]1CCOc2c(N3CC[C@@H](C4(N)CC4)C3)c(F)cc3cc(C(=O)O)c(=O)n1c23` [Example 1.24, (S)-11-((R)-3-(1-aminocyclopropyl)pyrrolidin-1-yl)-10-fluoro-4-methyl-6-oxo-3,4-dihydro-2H,6H-[1,4]oxazepino[2,3,4-ij]quinoline-7-carboxylic acid]: the MIC in test [1] was below 1 µg/mL; in test [2], 1 to 32 µg/mL (≈ 2.49 to 79.7 µM); in test [3], below 1 µg/mL; in test [4] it was 1 to 32 µg/mL (≈ 2.49 to 79.7 µM); in test [5], above 32 µg/mL; in test [6], below 1 µg/mL. The MIC in test [7] is 1 to 32 µg/mL (≈ 2.49 to 79.7 µM).

On to `C[C@H]1COc2c(N3Cc4cccc(F)c4C3)c(F)cc3cc(C(=O)O)c(=O)n1c23` [Example 1.25, (S)-9-fluoro-10-(4-fluoroisoindolin-2-yl)-3-methyl-5-oxo-2,3-dihydro-5H-[1,4]oxazino[2,3,4-ij]quinoline-6-carboxylic acid], for which the MIC in test [1] is 1 to 32 µg/mL (≈ 2.51 to 80.3 µM); in test [2], above 32 µg/mL; in test [3], 1 to 32 µg/mL (≈ 2.51 to 80.3 µM); in test [4], above 32 µg/mL; in test [5], above 32 µg/mL; in test [6], below 1 µg/mL. In addition, the MIC in test [7] was below 1 µg/mL.
